Assay results: patent publication US10040766B2, “Ubiquitination inhibitors” (Rigel Pharmaceuticals, Inc., priority 2014, dated 2018)
Where two headings read alike, the source gives them in different places.

Tests used:
[1] = biological target: Cks1-Skp2 protein-protein interaction (Homo sapiens, UniProt P61024+Q13309); experiment: Cks1-Skp2 protein-protein interaction ELISA; assay type: binding
Description: In vitro binding of Skp2 to Cks1 was established in an ELISA assay format, with Cks1 protein immobilized on a 384-well plate and binding of Skp1/Skp2 to Cks1 detected by anti-Skp2 immunoreaction.

[2] = system: fibrosarcoma HT1080; experiment: Inhibition of tumor cell growth, HT1080; assay type: cell-based
[3] = system: lung tumor cell line A549; experiment: Inhibition of tumor cell growth, A549; assay type: cell-based
[4] = Table 3, read-out: IC50 Cks1-Skp2
[5] = sulfonamide analogues, Table 2, read-out: Potency in the Cks1-Skp2 interaction assay
[6] = ELISA, Cks1 immobilized, Skp1/Skp2 binding detected by anti-Skp2, read-out: Cks1-Skp2 (μM), potency in the interaction assay

Cks1-Skp2 protein-protein interaction, sequence (P61024 whole entry): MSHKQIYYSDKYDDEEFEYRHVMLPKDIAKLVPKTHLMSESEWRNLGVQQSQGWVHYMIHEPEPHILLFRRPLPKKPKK
Cks1-Skp2 protein-protein interaction, sequence (Q13309 whole entry): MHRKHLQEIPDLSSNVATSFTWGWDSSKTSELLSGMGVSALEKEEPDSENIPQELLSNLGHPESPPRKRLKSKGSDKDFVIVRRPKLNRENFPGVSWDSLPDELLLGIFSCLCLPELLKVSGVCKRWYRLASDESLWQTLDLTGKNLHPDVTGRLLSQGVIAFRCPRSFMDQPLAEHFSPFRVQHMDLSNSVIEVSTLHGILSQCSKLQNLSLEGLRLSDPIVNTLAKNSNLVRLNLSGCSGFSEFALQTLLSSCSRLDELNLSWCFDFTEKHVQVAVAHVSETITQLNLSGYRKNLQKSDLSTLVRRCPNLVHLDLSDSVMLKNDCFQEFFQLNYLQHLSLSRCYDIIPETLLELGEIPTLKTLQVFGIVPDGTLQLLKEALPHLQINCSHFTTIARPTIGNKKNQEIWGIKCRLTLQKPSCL

4-methoxy-N-(5-(pyridin-3-yl)quinolin-8-yl)benzenesulfonamide [Compound 29]
IC50 [1, 4]: 2.45 µM | IC50 [1, 5]: 2.45 µM | IC50 [2]: 1320 nM | IC50 [3]: 3060 nM

4-methoxy-N-(5-(pyridin-4-yl)quinolin-8-yl)benzenesulfonamide [Compound 23]
IC50 [1, 4]: 0.58 µM | IC50 [1, 5]: 0.58 µM | IC50 [2]: 440 nM | IC50 [3]: 1240 nM

Cc1ccc(S(=O)(=O)Nc2ccc(Br)c3cccnc23)cc1 [Compound 1, N-(5-bromoquinolin-8-yl)-4-methylbenzenesulfonamide]
IC50 [1, 6]: 0.84 µM

Cc1ccc(S(=O)(=O)Nc2ccc(-c3ccccc3)c3cccnc23)cc1 [Compound 4, 4-methyl-N-(5-phenylquinolin-8-yl)benzenesulfonamide]
IC50 [1, 6]: 0.54 µM | IC50 [1, 4]: 0.54 µM | IC50 ([2]; Homo sapiens, HT-1080): 1640 nM | IC50 ([3]; Homo sapiens): 2360 nM

Cc1ccc(S(=O)(=O)Nc2ccc(-c3ccco3)c3cccnc23)cc1 [Compound 5, N-(5-(furan-2-yl)quinolin-8-yl)-4-methylbenzenesulfonamide]
IC50 [1, 6]: 0.55 µM | IC50 [1, 4]: 0.55 µM | IC50 ([2]; Homo sapiens, HT-1080): 9780 nM | IC50 ([3]; Homo sapiens): 26000 nM

Cc1ccc(S(=O)(=O)Nc2ccc(-c3cccnc3)c3cccnc23)cc1 [Compound 6, 4-methyl-N-(5-(pyridin-3-yl)quinolin-8-yl)benzenesulfonamide]
IC50 [1, 6]: 1.73 µM | IC50 [1, 4]: 1.73 µM | IC50 ([2]; Homo sapiens, HT-1080): 4220 nM | IC50 ([3]; Homo sapiens): 6020 nM

Cc1ccc(S(=O)(=O)Nc2ccc(-c3ccsc3)c3cccnc23)cc1 [Compound 7, 4-methyl-N-(5-(thiophen-3-yl)quinolin-8-yl)benzenesulfonamide]
IC50 [1, 6]: 5.54 µM | IC50 [1, 4]: 5.54 µM | IC50 ([2]; Homo sapiens, HT-1080): 640 nM | IC50 ([3]; Homo sapiens): 2360 nM

Cc1ccc(S(=O)(=O)Nc2ccc(-c3cc4ccccc4s3)c3cccnc23)cc1 [Compound 8, N-(5-(benzo[b]thiophen-2-yl)quinolin-8-yl)-4-methylbenzenesulfonamide]
IC50 [1, 6]: 7.84 µM | IC50 [1, 4]: 7.84 µM | IC50 ([2]; Homo sapiens, HT-1080): 150 nM | IC50 ([3]; Homo sapiens): 390 nM

Cc1ccc(S(=O)(=O)Nc2cc(Oc3cc(F)cc(F)c3)cc3cccnc23)cc1 [Compound 12, N-(6-(3,5-difluorophenoxy)quinolin-8-yl)-4-methylbenzenesulfonamide]
IC50 [1, 6]: 3.57 µM | IC50 [1, 4]: 3.57 µM | IC50 [2]: 80 nM | IC50 [3]: 4110 nM

COc1ccc(Oc2cc(NS(=O)(=O)c3ccc(C)cc3)c3ncccc3c2)cc1 [Compound 13, N-(6-(4-methoxyphenoxy)quinolin-8-yl)-4-methylbenzenesulfonamide]
IC50 [1, 6]: 1.15 µM | IC50 [1, 4]: 1.15 µM | IC50 [2]: 740 nM | IC50 [3]: 4090 nM

Cc1ccc(S(=O)(=O)Nc2cc(Oc3cccc(C#N)c3)cc3cccnc23)cc1 [Compound 14, N-(6-(3-cyanophenoxy)quinolin-8-yl)-4-methylbenzenesulfonamide]
IC50 [1, 6]: 1.74 µM | IC50 [1, 4]: 1.74 µM | IC50 [2]: 6830 nM | IC50 [3]: 6480 nM

CS(=O)(=O)Nc1ccc(-c2ccccc2)c2cccnc12 [Compound 15, N-(5-phenylquinolin-8-yl)methanesulfonamide]
IC50 [1, 5]: 2.2 µM

O=S(=O)(Nc1ccc(-c2ccccc2)c2cccnc12)C1CC1 [Compound 16, N-(5-phenylquinolin-8-yl)cyclopropanesulfonamide]
IC50 [1, 5]: 12.1 µM

COc1ccc(S(=O)(=O)Nc2ccc(-c3ccccc3)c3cccnc23)cc1 [Compound 17, 4-methoxy-N-(5-phenylquinolin-8-yl)benzenesulfonamide]
IC50 [1, 5]: 8.02 µM

O=S(=O)(Nc1ccc(-c2ccccc2)c2cccnc12)c1cccc(C(F)(F)F)c1 [Compound 18, N-(5-phenylquinolin-8-yl)-3-(trifluoromethyl)benzenesulfonamide]
IC50 [1, 5]: 6.7 µM

O=S(=O)(Nc1ccc(-c2ccccc2)c2cccnc12)c1cccnc1 [Compound 19, N-(5-phenylquinolin-8-yl)pyridine-3-sulfonamide]
IC50 [1, 5]: 2.2 µM

CC(=O)Nc1ccc(S(=O)(=O)Nc2ccc(-c3ccccc3)c3cccnc23)cc1 [Compound 20, N-(4-(N-(5-phenylquinolin-8-yl)sulfamoyl)phenyl)acetamide]
IC50 [1, 5]: 7.6 µM

CS(=O)(=O)Nc1ccc(-c2cccnc2)c2cccnc12 [Compound 21, N-(5-(pyridin-3-yl)quinolin-8-yl)methanesulfonamide]
IC50 [1, 5]: 15.1 µM

O=S(=O)(Nc1ccc(-c2cccnc2)c2cccnc12)C1CC1 [Compound 22, N-(5-(pyridin-3-yl)quinolin-8-yl)cyclopropanesulfonamide]
IC50 [1, 5]: 7.16 µM

O=S(=O)(Nc1ccc(-c2cccnc2)c2cccnc12)c1cccc(C(F)(F)F)c1 [Compound 24, N-(5-(pyridin-3-yl)quinolin-8-yl)-3-(trifluoromethyl)benzenesulfonamide]
IC50 [1, 4]: 0.17 µM | IC50 [1, 5]: 0.17 µM | IC50 ([2]; Homo sapiens, HT-1080): 400 nM | IC50 ([3]; Homo sapiens): 910 nM

O=S(=O)(Nc1ccc(-c2cccnc2)c2cccnc12)c1cccnc1 [Compound 25, N-(5-(pyridin-3-yl)quinolin-8-yl)pyridine-3-sulfonamide]
IC50 [1, 4]: 1.67 µM | IC50 [1, 5]: 1.67 µM | IC50 ([2]; Homo sapiens, HT-1080): 1070 nM | IC50 ([3]; Homo sapiens): 5240 nM

CC(=O)Nc1ccc(S(=O)(=O)Nc2ccc(-c3cccnc3)c3cccnc23)cc1 [Compound 26, N-(4-(N-(5-(pyridin-3-yl)quinolin-8-yl)sulfamoyl)phenyl)acetamide]
IC50 [1, 5]: 14.5 µM

O=S(=O)(Nc1ccc(-c2ccncc2)c2cccnc12)C1CC1 [Compound 28, N-(5-(pyridin-4-yl)quinolin-8-yl)cyclopropanesulfonamide]
IC50 [1, 5]: 10.9 µM

O=S(=O)(Nc1ccc(-c2ccncc2)c2cccnc12)c1cccnc1 [Compound 30, N-(5-(pyridin-4-yl)quinolin-8-yl)pyridine-3-sulfonamide]
IC50 [1, 4]: 1.21 µM | IC50 [1, 5]: 1.21 µM | IC50 ([2]; Homo sapiens, HT-1080): 1070 nM | IC50 ([3]; Homo sapiens): 5880 nM

CC(=O)Nc1ccc(S(=O)(=O)Nc2ccc(-c3ccncc3)c3cccnc23)cc1 [Compound 31, N-(4-(N-(5-(pyridin-4-yl)quinolin-8-yl)sulfamoyl)phenyl)acetamide]
IC50 [1, 5]: 6.55 µM
